Earlier results as cited in patent US11534458B2, “Phosphorus-sparing nutritional composition” (Albion Laboratories, Inc., priority 2013, dated 2022).
Read-outs that look alike come from different tables or passages of the source.

Key:
healthy young women = conditions: for iron absorption increased by a factor of: phytase 10 mg (190 FTU), maize porridge meal
[1] = phytate-rich diet

[Ca+2] [calcium]
decrease of phosphorus absorption (for each 500 mg (12.5 mmol) supplemental calcium ingested): 5.4 mmol | decrease of phosphorus absorption (for every 500 mg elemental calcium equivalent ingested): 166 mg

O=C1O[C@H]([C@@H](O)CO)C(O)=C1O [ascorbic acid, reference compound]
effect on iron absorption (healthy young women; ascorbic acid alone, iron from NaFeEDTA): little effect | iron absorption [1]: markedly improved

B1: Recombinant A. niger phytase: recombinant Aspergillus niger phytase (microbial 3-phytase enzyme) of literature studies (protein, UniProt P34752 24-467, looked up)
Phytase A: ASRNQSSCDTVDQGYQCFSETSHLWGQYAPFFSLANESVISPEVPAGCRVTFAQVLSRHGARYPTDSKGKKYSALIEEIQQNATTFDGKYAFLKTYNYSLGADDLTPFGEQELVNSGIKFYQRYESLTRNIVPFIRSSGSSRVIASGKKFIEGFQSTKLKDPRAQPGQSSPKIDVVISEASSSNNTLDPGTCTVFEDSELADTVEANFTATFVPSIRQRLENDLSGVTLTDTEVTYLMDMCSFDTISTSTVDTKLSPFCDLFTHDEWINYDYLQSLKKYYGHGAGNPLGPTQGVGYANELIARLTHSPVHDDTSSNHTLDSSPATFPLNSTLYADFSHDNGIISILFALGLYNGTKPLSTTTVENITQTDGFSSAWTVPFASRLYVEMMQCQAEQEPLVRVLVNDRVVPLHGCPVDALGRCTRDSFVRGLSFARSGGDWAECFA
iron absorption increased by a factor of (healthy young women; iron given as FeSO4): 1.71 | iron absorption increased by a factor of (healthy young women; iron given as NaFeEDTA): 1.23
